In PubChem BioAssay AID1963958 (Molecular Pharmacology Branch, DTP, NCI, 2024):

System: MDA-MB-231 multicell spheroids, viability
Test: Anticancer human tumor MDA-MB-231 cell line growth inhibition [PI3K];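 also: spheroids exposed to agents for seven days before reading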;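 as to viability, T/C: percent of vehicle control luminescence with DMSO treated spheroids as 100%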
Details: for IC50: curve of first compound; for viability, T/C: stronger effect = lower value
Summary of the method: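 Spheroid viability read-out. Co-cultures contained the tumor line plus HUVEC and human MSCs. Each agent was paired with a PI3K inhibitor (inavolisib, alpelisib, duvelisib, copanlisib) across half-log dilutions starting at clinical Cmax, or at 10 microM when Cmax was unknown.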

[1] = second compound 0.00316 µM, first compound 0.0316 µM
[2] = second compound 0.00316 µM, first compound 0.1 µM
[3] = second compound 0.00316 µM, first compound 0.316 µM
[4] = second compound 0.00316 µM, first compound 1 µM
[5] = second compound 0.00316 µM, first compound 3.16 µM
[6] = second compound 0.00316 µM, first compound 10 µM
[7] = second compound 0.01 µM, first compound 0.0316 µM
[8] = second compound 0.01 µM, first compound 0.1 µM
[9] = second compound 0.01 µM, first compound 0.316 µM
[10] = second compound 0.01 µM, first compound 1 µM
[11] = second compound 0.01 µM, first compound 3.16 µM
[12] = second compound 0.01 µM, first compound 10 µM
[13] = second compound 0.0316 µM, first compound 0.0316 µM
[14] = second compound 0.0316 µM, first compound 0.1 µM
[15] = second compound 0.0316 µM, first compound 0.316 µM
[16] = second compound 0.0316 µM, first compound 1 µM
[17] = second compound 0.0316 µM, first compound 3.16 µM
[18] = second compound 0.0316 µM, first compound 10 µM
[19] = second compound 0.1 µM, first compound 0.0316 µM
[20] = second compound 0.1 µM, first compound 0.1 µM
[21] = second compound 0.1 µM, first compound 0.316 µM
[22] = second compound 0.1 µM, first compound 1 µM
[23] = second compound 0.1 µM, first compound 3.16 µM
[24] = second compound 0.1 µM, first compound 10 µM
[25] = second compound 0.316 µM, first compound 0.0316 µM
[26] = second compound 0.316 µM, first compound 0.1 µM
[27] = second compound 0.316 µM, first compound 0.316 µM
[28] = second compound 0.316 µM, first compound 1 µM
[29] = second compound 0.316 µM, first compound 3.16 µM
[30] = second compound 0.316 µM, first compound 10 µM
[31] = second compound 1 µM, first compound 0.0316 µM
[32] = second compound 1 µM, first compound 0.1 µM
[33] = second compound 1 µM, first compound 0.316 µM
[34] = second compound 1 µM, first compound 1 µM
[35] = second compound 1 µM, first compound 3.16 µM
[36] = second compound 1 µM, first compound 10 µM

C=CC(=O)N1CCN(c2nc(=O)n(-c3c(C)ccnc3C(C)C)c3nc(-c4c(O)cccc4F)c(F)cc23)C(C)C1 (centres undefined) + COc1c(OCCCN2CCOCC2)ccc2c3n(c(=NC(=O)c4cnc(N)nc4)nc12)CCN3
IC50 (second compound 0.00316 µM): > 10 µM | IC50 (second compound 0.01 µM): > 10 µM | IC50 (second compound 0.0316 µM): > 10 µM | IC50 (second compound 0.1 µM): < 0.0316 µM | IC50 (second compound 0.316 µM): < 0.0316 µM | IC50 (second compound 1 µM): < 0.0316 µM | viability, T/C [1]: 94.2% | viability, T/C [2]: 91.6% | viability, T/C [3]: 104% | viability, T/C [4]: 112% | viability, T/C [5]: 122% | viability, T/C [6]: 105% | viability, T/C [7]: 83.5% | viability, T/C [8]: 82.7% | viability, T/C [9]: 85.4% | viability, T/C [10]: 93.2% | viability, T/C [11]: 103% | viability, T/C [12]: 85.8% | viability, T/C [13]: 59.1% | viability, T/C [14]: 58.9% | viability, T/C [15]: 61.6% | viability, T/C [16]: 62.5% | viability, T/C [17]: 64.8% | viability, T/C [18]: 48% | viability, T/C [19]: 42.3% | viability, T/C [20]: 45.3% | viability, T/C [21]: 46.7% | viability, T/C [22]: 46.1% | viability, T/C [23]: 45.7% | viability, T/C [24]: 33.6% | viability, T/C [25]: 31.1% | viability, T/C [26]: 31.4% | viability, T/C [27]: 32.7% | viability, T/C [28]: 31.7% | viability, T/C [29]: 27.6% | viability, T/C [30]: 26.7% | viability, T/C [31]: 24.8% | viability, T/C [32]: 24.3% | viability, T/C [33]: 23.2% | viability, T/C [34]: 26.3% | viability, T/C [35]: 29.3% | viability, T/C [36]: 25.7%

CC(Cn1ccc(-c2ccc(C#N)c(Cl)c2)n1)NC(=O)c1cc(C(C)O)[nH]n1 (centres undefined) + COc1c(OCCCN2CCOCC2)ccc2c3n(c(=NC(=O)c4cnc(N)nc4)nc12)CCN3
IC50 (second compound 0.00316 µM): > 10 µM | IC50 (second compound 0.01 µM): > 10 µM | IC50 (second compound 0.0316 µM): > 10 µM | IC50 (second compound 0.1 µM): < 0.0316 µM | IC50 (second compound 0.316 µM): < 0.0316 µM | IC50 (second compound 1 µM): < 0.0316 µM | viability, T/C [1]: 90% | viability, T/C [2]: 93.5% | viability, T/C [3]: 106% | viability, T/C [4]: 96.9% | viability, T/C [5]: 91.9% | viability, T/C [6]: 84.2% | viability, T/C [7]: 76.8% | viability, T/C [8]: 83.2% | viability, T/C [9]: 80.1% | viability, T/C [10]: 82.6% | viability, T/C [11]: 77.6% | viability, T/C [12]: 67.9% | viability, T/C [13]: 60.8% | viability, T/C [14]: 63.9% | viability, T/C [15]: 60.8% | viability, T/C [16]: 62.5% | viability, T/C [17]: 55% | viability, T/C [18]: 46.2% | viability, T/C [19]: 44.4% | viability, T/C [20]: 47.1% | viability, T/C [21]: 44.1% | viability, T/C [22]: 47.3% | viability, T/C [23]: 45.1% | viability, T/C [24]: 37.6% | viability, T/C [25]: 31.6% | viability, T/C [26]: 30.3% | viability, T/C [27]: 31.4% | viability, T/C [28]: 32% | viability, T/C [29]: 29.6% | viability, T/C [30]: 26.1% | viability, T/C [31]: 24.4% | viability, T/C [32]: 24.8% | viability, T/C [33]: 24.6% | viability, T/C [34]: 25.3% | viability, T/C [35]: 24.8% | viability, T/C [36]: 22.4%
